The test system of experiment [1] is Epidermal growth factor receptor (Homo sapiens), P00533 [L861Q]. The experiment can be described thus: Inhibition of human recombinant N-terminal GST-tagged EGFR (696 residue-end) L861Q mutant expressed in baculovirus infected Sf21 cells using angiotensin-2 as substrate after 10 mins in presence of [gamma-33P]ATP by scintillation counting method.
Experiment [2] has as its target Tyrosine-protein kinase ABL1 (Homo sapiens, UniProt P00519). In words: Inhibition of Abl (unknown origin).
Experiment [3] addresses T1, Receptor-type tyrosine-protein kinase FLT3 (Homo sapiens, UniProt P36888).
T1 sequence (P36888 whole entry): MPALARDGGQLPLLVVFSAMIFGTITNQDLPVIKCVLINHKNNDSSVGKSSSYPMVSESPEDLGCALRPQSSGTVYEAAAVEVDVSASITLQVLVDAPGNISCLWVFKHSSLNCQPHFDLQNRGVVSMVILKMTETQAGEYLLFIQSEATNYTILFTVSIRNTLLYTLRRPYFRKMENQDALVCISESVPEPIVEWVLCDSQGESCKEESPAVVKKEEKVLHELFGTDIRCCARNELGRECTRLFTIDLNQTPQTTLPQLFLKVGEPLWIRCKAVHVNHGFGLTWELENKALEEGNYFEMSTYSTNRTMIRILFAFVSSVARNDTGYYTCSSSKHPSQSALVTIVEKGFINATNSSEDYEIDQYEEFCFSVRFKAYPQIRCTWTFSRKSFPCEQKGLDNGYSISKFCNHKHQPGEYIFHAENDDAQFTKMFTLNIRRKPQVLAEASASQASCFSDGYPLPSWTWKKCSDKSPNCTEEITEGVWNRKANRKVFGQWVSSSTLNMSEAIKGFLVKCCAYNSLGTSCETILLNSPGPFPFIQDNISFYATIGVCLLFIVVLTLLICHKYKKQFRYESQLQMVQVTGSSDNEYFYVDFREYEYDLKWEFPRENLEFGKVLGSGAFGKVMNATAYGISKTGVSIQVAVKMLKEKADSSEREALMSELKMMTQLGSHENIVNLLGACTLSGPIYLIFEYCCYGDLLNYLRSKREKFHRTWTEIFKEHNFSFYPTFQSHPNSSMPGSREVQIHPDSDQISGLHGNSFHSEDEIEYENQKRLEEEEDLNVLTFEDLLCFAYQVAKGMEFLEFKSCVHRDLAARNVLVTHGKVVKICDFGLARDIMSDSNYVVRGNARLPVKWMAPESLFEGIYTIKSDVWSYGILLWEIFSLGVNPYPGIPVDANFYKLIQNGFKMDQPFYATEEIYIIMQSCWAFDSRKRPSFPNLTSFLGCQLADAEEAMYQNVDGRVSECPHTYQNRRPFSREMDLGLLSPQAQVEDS
In words: Inhibition of Flt3 (unknown origin) using KVEKIGEGTYGVVYK as substrate after 10 mins in presence of [gamma-33P]ATP by scintillation counting method.

The test system of experiment [4] is Tyrosine-protein kinase ABL1 (Homo sapiens), P00519 [T315I]. The experiment can be described thus: Inhibition of Abl T315I mutant (unknown origin).
A further experiment has as its system U-87 MG. The experiment can be described thus: Cytotoxicity against human U87MG cells assessed as decrease in cell viability after 72 hrs by coulter counter analysis. It counts as functional, cell-based, U-87MG ATCC.
The target of experiment [5] is Tyrosine-protein kinase Fyn (Homo sapiens, UniProt P06241). The experiment can be described thus: Inhibition of human recombinant full length N-terminal His6-tagged Fyn expressed in baculovirus infected Sf21 cells using KVEKIGEGTYGVVYK as substrate after 10 mins in presence of [gamma-33P]ATP by scintillation counting method.
Tyrosine-protein kinase Fyn, sequence (P06241 whole entry): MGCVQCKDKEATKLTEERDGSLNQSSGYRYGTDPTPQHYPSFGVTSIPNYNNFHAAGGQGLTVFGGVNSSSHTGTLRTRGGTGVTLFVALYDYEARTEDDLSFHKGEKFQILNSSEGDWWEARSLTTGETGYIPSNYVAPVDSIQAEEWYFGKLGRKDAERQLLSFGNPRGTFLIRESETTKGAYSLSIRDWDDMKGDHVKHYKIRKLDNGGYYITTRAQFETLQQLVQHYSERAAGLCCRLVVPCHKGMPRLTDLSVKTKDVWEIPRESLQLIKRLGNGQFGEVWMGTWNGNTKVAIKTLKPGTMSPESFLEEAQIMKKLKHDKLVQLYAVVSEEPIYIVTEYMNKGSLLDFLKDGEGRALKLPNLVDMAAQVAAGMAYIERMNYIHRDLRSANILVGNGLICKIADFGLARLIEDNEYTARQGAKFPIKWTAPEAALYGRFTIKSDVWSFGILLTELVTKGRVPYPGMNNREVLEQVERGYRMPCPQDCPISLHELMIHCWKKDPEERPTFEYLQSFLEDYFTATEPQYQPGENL
Experiment [6] has as its target Proto-oncogene tyrosine-protein kinase Src (Homo sapiens, UniProt P12931). The experiment can be described thus: Inhibition of human recombinant full length N-terminal His6-tagged Src expressed in Sf21 cells using KVEKIGEGTYGVVYK as substrate after 10 mins in presence of [gamma-33P]ATP by scintillation counting method.
Experiment [7] has as its target Mast/stem cell growth factor receptor Kit (Homo sapiens, UniProt P10721). The experiment can be described thus: Inhibition of human recombinant GST-His6-tagged Kit C-terminal fragment (544 to 976 residues) using GGMEDIYFEFMGGKKK as substrate after 10 mins in presence of [gamma-33P]ATP by scintillation counting method.

Active and inactive are the calls of the source. No cut-off for these calls is given here.

Epidermal growth factor receptor (Homo sapiens), P00533 [L861Q], sequence (P00533 whole entry L861Q): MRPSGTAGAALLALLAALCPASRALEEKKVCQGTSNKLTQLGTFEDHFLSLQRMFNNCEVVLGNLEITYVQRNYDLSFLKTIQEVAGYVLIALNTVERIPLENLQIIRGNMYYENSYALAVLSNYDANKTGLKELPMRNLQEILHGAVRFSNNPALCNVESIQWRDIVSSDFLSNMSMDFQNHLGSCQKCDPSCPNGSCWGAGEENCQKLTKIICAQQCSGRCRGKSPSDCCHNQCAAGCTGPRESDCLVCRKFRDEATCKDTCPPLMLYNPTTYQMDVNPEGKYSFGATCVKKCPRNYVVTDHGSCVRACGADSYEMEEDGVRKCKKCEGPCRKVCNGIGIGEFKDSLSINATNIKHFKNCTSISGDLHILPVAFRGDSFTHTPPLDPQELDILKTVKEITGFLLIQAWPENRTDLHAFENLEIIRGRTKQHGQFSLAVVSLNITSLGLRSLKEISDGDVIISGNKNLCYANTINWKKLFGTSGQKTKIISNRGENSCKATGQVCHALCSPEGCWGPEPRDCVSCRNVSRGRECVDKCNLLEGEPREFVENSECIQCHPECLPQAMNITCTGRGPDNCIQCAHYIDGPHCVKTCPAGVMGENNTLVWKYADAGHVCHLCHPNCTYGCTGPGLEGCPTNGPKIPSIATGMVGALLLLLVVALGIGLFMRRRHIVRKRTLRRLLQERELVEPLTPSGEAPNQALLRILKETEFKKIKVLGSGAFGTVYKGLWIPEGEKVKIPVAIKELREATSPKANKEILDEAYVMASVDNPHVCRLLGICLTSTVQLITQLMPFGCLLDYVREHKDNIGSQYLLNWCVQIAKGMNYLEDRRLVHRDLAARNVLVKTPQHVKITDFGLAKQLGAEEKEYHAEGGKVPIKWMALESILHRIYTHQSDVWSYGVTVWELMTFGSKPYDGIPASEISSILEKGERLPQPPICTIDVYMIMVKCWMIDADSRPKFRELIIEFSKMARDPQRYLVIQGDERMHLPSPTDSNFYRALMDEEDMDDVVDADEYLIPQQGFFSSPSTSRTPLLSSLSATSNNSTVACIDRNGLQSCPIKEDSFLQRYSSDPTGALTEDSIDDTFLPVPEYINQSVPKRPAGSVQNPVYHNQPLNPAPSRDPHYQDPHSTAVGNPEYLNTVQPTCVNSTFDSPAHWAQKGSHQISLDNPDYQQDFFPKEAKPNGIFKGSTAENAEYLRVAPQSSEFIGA
Proto-oncogene tyrosine-protein kinase Src, sequence (P12931 2-536 limits assumed): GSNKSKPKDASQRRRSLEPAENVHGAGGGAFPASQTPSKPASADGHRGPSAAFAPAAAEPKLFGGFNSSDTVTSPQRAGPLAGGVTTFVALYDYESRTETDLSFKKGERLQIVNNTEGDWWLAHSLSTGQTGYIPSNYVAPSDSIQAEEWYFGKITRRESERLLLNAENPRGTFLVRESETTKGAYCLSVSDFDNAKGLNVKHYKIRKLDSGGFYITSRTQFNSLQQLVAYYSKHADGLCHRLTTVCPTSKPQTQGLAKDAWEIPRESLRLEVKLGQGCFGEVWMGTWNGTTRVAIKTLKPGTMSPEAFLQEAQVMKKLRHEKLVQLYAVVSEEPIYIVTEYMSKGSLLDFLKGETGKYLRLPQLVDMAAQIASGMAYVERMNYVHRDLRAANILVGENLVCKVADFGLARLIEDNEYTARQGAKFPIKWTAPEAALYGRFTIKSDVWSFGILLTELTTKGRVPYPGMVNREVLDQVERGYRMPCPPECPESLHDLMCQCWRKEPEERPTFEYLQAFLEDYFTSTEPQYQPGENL
Mast/stem cell growth factor receptor Kit, sequence (P10721 whole entry, the tested form may be a part): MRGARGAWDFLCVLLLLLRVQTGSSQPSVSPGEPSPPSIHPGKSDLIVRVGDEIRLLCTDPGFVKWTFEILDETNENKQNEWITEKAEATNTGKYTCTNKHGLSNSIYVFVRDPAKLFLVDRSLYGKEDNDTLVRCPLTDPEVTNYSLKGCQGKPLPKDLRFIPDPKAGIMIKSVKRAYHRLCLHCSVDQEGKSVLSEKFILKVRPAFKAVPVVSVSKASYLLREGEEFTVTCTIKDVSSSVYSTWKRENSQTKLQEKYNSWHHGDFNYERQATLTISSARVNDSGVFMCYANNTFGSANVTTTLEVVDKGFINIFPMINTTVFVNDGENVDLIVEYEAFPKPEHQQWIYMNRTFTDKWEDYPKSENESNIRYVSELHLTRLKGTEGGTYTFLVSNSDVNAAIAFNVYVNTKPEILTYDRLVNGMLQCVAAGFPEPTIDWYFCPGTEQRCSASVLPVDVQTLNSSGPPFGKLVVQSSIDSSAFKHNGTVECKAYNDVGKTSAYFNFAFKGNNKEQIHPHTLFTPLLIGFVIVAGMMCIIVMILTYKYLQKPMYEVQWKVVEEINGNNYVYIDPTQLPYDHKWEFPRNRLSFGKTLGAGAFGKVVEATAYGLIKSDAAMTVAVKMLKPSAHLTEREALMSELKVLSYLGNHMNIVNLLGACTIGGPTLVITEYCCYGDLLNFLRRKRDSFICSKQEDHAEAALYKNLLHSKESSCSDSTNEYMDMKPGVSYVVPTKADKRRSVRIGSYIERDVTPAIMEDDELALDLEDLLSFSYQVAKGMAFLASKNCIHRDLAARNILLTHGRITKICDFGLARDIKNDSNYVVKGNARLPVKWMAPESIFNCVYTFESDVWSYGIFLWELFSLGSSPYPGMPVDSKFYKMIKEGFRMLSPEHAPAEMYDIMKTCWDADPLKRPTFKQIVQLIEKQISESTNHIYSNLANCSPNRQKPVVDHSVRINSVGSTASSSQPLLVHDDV

What is called IC50 is the concentration at which inhibition is half-maximal. What is called Ki is a measure of affinity in units of concentration, obtained from inhibition or displacement. For the compound `CSc1nc(Nc2cccc(Cl)c2)c2ccn(CC(Cl)c3ccccc3)c2n1` (stereo not given), the inhibition result in experiment [1] and in experiment [4] was “inactive” in each case. Further, the IC50 result was “Not Active” in experiment [2]; 55 µM in experiment [3] (read-out: IC50); 143 µM in the experiment with U-87 MG; 58.2 µM in experiment [5] (read-out: IC50); “Not Active” in experiment [7]. Further, the inhibition constant (Ki) in experiment [6] was found to be 0.7 µM.
As for `CSc1nc(N2CCCC2)c2ccn(Cc3ccc(F)cc3)c2n1`, the inhibition result in experiment [1] and in experiment [4] was “inactive” in each case. The IC50 entry was “Not Active” in experiment [2]; 64 µM in experiment [3] (read-out: IC50); 51.8 µM in the experiment with U-87 MG; 76 µM in experiment [5] (read-out: IC50); “Not Active” in experiment [7]. The inhibition constant (Ki) in experiment [6] was 2 µM.
Regarding `CSc1nc(NCc2ccccc2)c2ccn(CC(Cl)c3ccccc3)c2n1` (stereo not given), the inhibition result in experiment [1] and in experiment [4] was “inactive” each time. The IC50 entry in experiment [2] was “Not Active”; in experiment [3] (read-out: IC50), 68 µM; in the experiment on U-87 MG it was 50.7 µM; in experiment [5] (read-out: IC50) it was 88.6 µM; in experiment [7], “Not Active”. Besides, in experiment [6], the Ki is 6 µM.
With `CSc1nc(N2CCCCC2)c2ccn(Cc3ccc(F)cc3)c2n1`, the inhibition entry in experiment [1] and in experiment [4] was “inactive” each time. The IC50 result in experiment [2] was “Not Active”; in experiment [3] (read-out: IC50), 61 µM; with U-87 MG, 50.7 µM; in experiment [5] (read-out: IC50), 57.1 µM; in experiment [7], “Not Active”. The inhibition constant Ki in experiment [6] was 2.5 µM.
For `CSc1nc(NCCc2ccc(Cl)cc2)c2ccn(Cc3ccc(F)cc3)c2n1`, the inhibition result in experiment [1] and in experiment [4] was “inactive” each time. In addition, the IC50 entry in experiment [2] was “Not Active”; in experiment [3] (read-out: IC50) it was 76 µM; in the experiment with U-87 MG, 46.1 µM; in experiment [5] (read-out: IC50) it was 70.4 µM; in experiment [7] it was “Not Active”. Also, the Ki in experiment [6] amounted to 5 µM.
For `CSc1nc(Nc2ccccc2)c2ccn(CC(Cl)c3ccccc3)c2n1` (stereo not given), the inhibition entry in experiment [1] and in experiment [4] was “inactive” each time. For the same compound, the IC50 entry is “Not Active” in experiment [2]; 72 µM in experiment [3] (read-out: IC50); 27.4 µM in the experiment with U-87 MG; 62 µM in experiment [5] (read-out: IC50); “Not Active” in experiment [7]. Besides, in experiment [6], the Ki is 1.5 µM.
Turning to `CSc1nc(NCCc2ccccc2)c2ccn(Cc3ccc(F)cc3)c2n1`, the inhibition result in experiment [1] and in experiment [4] was “inactive” each time. Besides, the IC50 result in experiment [2] is “Not Active”; in experiment [3], “Not Active”; in the experiment on U-87 MG, 13.3 µM; in experiment [5] (read-out: IC50), 30.8 µM; in experiment [7], “Not Active”. Further, the Ki in experiment [6] came out at 0.8 µM.
Consider `CSc1nc(NCc2ccccc2)c2ccn(Cc3ccc(F)cc3)c2n1`, for which the inhibition entry in experiment [1] and in experiment [4] was “inactive” throughout. Besides, the IC50 in experiment [2] (read-out: IC50) is 70 µM; in experiment [3] (read-out: IC50), 60 µM; in the experiment on U-87 MG, 7.1 µM; in experiment [5] (read-out: IC50), 43.2 µM; in experiment [7], “Not Active”. The inhibitory constant (Ki) in experiment [6] was 0.5 µM.
On to `CSc1nc(N2CCOCC2)c2ccn(Cc3ccc(F)cc3)c2n1`, for which the inhibition entry in experiment [1] and in experiment [4] was “inactive” each time. Moreover, the IC50 entry in experiment [2] was “Not Active”; in experiment [3] (read-out: IC50) it was 61 µM; with U-87 MG it was 20.3 µM; in experiment [5], “Not Active”; in experiment [7], “Not Active”. The inhibitory constant (Ki) in experiment [6] was 4.7 µM.
Take `CCCCNc1nc(SC)nc2c1ccn2Cc1ccc(F)cc1`: the inhibition result in experiment [1] and in experiment [4] was “inactive” each time. Further, the IC50 entry in experiment [2] was “Not Active”; in experiment [3] it was “Not Active”; in the experiment with U-87 MG, 20.7 µM; in experiment [5], “Not Active”; in experiment [7], “Not Active”. In addition, the inhibitory constant (Ki) in experiment [6] stood at 3 µM.

The record behind these values is ChEMBL document CHEMBL3992531, “Identification of new pyrrolo[2,3-d]pyrimidines as Src tyrosine kinase inhibitors in vitro active against Glioblastoma” (Eur J Med Chem, 2017).
